Read-outs that look alike come from different tables or passages of the source. Marks after values point to notes of the source that are not given here.
Legend:
[1] = system: alpha2-adrenergic receptors; details: alpha2 vs alpha1; cited from earlier work
[2] = Method: (§1) […] were prepared by adding an excess of drug substance to various solvents and storing the samples in sealed containers for 24 hours at room temperature with continuous stirring.
(§2) The majority of samples were stirred by a magnetic stirrer; however, in the case of viscous samples (e.g for pure glycerine), samples were stirred using a rotary mixer. The speed of the rotary mixer was adjusted to ensure proper mixing of the sample and this generally involved slower rotation speeds.
(§3) The chromatographic conditions are described below:• Column: Sunfire C18 150 mm×4.6 mm, 3.5 μm • Column temperature: 40° C. • Injection volume: […] • Flow rate: 0.8m1/minute • UV Detection: 246 nm

[3] = for saturation in the aqueous solvent phase of the primary formulation: prior to application
Method: as §1, §2, §3
Saturated solutions were prepared, incubated and measured as described in Example 1.

[4] = conditions not specified, cited from earlier work

Brc1c(NC2=NCCN2)ccc2nccnc12 [Brimonidine]
selectivity for alpha2-adrenergic receptors over alpha1-adrenergic receptors [1]: 1,000 times

brimonidine tartrate
solubility in glycerine relative to propylene glycol ([2]; glycerine vs propylene glycol): twice | Max Solubility % (w/w) ([2]; in ARLASOLVE DMI, 24 hours at room temperature): 0.01 % (w/w) | Max Solubility % (w/w) ([2]; in GLUCAM E10, peak degradation observed after reinjection T + 72 hours): 0.72* % (w/w) | Max Solubility % (w/w) ([2]; in GLUCAM E20, peak degradation observed after reinjection T + 72 hours): 0.88* % (w/w) | Max Solubility % (w/w) ([2]; in Glycerine (GLY, 20 ml scintillation bottle)): 1.61 % (w/w) | Max Solubility % (w/w) ([2]; in Hexylene Glycol): 0.01 % (w/w) | Max Solubility % (w/w) ([2]; in Na Pyrrolidone Carboxylate (Ajidew L50)): 0.06 % (w/w) | Max Solubility % (w/w) ([2]; in PEG-400): 0.10 % (w/w) | Max Solubility % (w/w) ([2]; in Propylene Carbonate, peak degradation observed after reinjection T + 24 hours): 0.01** % (w/w) | Max Solubility % (w/w) ([2]; in Propylene glycol, measured value): 0.56 % (w/w) | Max Solubility % (w/w) ([2]; in TRANSCUTOL, 24 hours at room temperature): 0.05 % (w/w) | Max Solubility % (w/w) ([2]; in WATER, measured value): 6.40 % (w/w) | solubility capacity of PG relative to glycerine ([2]; propylene glycol vs glycerine): 50% | active agent solubilised by the non-volatile mixture compared to the aqueous mixture ([3]; PG/PEG-400/GLY/PVP (20:10:5:1) vs PG/PEG400/GLY/PVP/water (20:10:5:1:40)): approximately 22% | saturation in the aqueous solvent phase of the primary formulation ([3]; concentration of 1% brimonidine tartrate): around 30% | saturation in the aqueous solvent phase of the primary formulation ([3]; concentration of 1.5% brimonidine tartrate): ~50% | Max Solubility % (w/w) ([3]; in PG/PEG-400 (20:10)): 0.45 % (w/w) | Max Solubility % (w/w) ([3]; in PG/PEG-400/GLY (20:10:5)): 0.66 % (w/w) | Max Solubility % (w/w) ([3]; in PG/PEG-400/GLY/(20:10:5:1)): 0.72 % (w/w) | Max Solubility % (w/w) ([3]; in PG/PEG-400/GLY/PVP/Water (20:10:5:1:40)): 3.3 % (w/w) | Max Solubility % (w/w) ([3]; in PG/PEG-400/PVP (20:10:1)): 0.45 % (w/w) | Max Solubility % (w/w) ([4]; in Propylene glycol, literature value (Product Monograph ALPHAGAN)): ~0.1**** % (w/w) | Max Solubility % (w/w) ([4]; in WATER, literature value): 3.4*** % (w/w)

— patent US20240100045A1, “EMULSION COMPOSITION AND USES THEREOF IN THE PREVENTION AND/OR TREATMENT OF SKIN DAMAGE CAUSED BY RADIATION” (TARIAN PHARMA, priority 2021, published 2024)
